Measurements as given in the NIST ThermoML archive (doi:10.1021/je800110r).
“And” between values parts separate entries of the source, which are not always exact repeats. Equal entries are not always repeated.

Conditions: Liquid, Vibrating tube method

CCCCCCCCCC [decane]
Conditions	mass density
303.16 K, 24314 kPa	740.3 kg/m3
303.16 K, 24549 kPa	740.5 kg/m3
303.16 K, 24602 kPa	740.4 kg/m3
303.16 K, 24630 kPa	740.5 kg/m3
303.16 K, 24682 kPa	740.5 kg/m3
303.16 K, 24710 kPa	740.6 kg/m3
303.16 K, 24755 kPa	740.6 kg/m3
303.16 K, 24776 kPa	740.5 kg/m3
303.16 K, 25088 kPa	740.7 kg/m3
303.16 K, 25114 kPa	740.9 kg/m3
303.16 K, 25147 kPa	740.9 kg/m3
303.16 K, 25173 kPa	740.9 kg/m3
303.16 K, 25208 kPa	740.9 kg/m3
303.16 K, 25234 kPa	740.9 kg/m3
303.16 K, 25263 kPa	740.9 kg/m3
303.16 K, 25293 kPa	741 kg/m3
303.16 K, 25324 kPa	740.9 kg/m3
303.16 K, 25354 kPa	741.1 kg/m3
303.16 K, 25385 kPa	741.1 kg/m3
303.16 K, 25420 kPa	741.1 kg/m3
303.16 K, 25450 kPa	741 kg/m3
303.16 K, 25481 kPa	741.1 kg/m3
303.16 K, 25524 kPa	741.1 kg/m3
303.16 K, 25559 kPa	741.1 kg/m3
303.16 K, 25586 kPa	741.1 kg/m3
303.16 K, 25617 kPa	741.1 kg/m3
303.16 K, 25802 kPa	741.3 kg/m3
303.17 K, 10063 kPa	730.2 kg/m3
303.17 K, 10074 kPa	730.3 kg/m3
313.14 K, 1292 kPa	715.7 kg/m3
313.14 K, 1332 kPa	715.8 kg/m3
313.14 K, 1362 kPa	715.8 kg/m3
313.14 K, 1410 kPa	715.8 kg/m3
313.14 K, 1449 kPa	715.7 kg/m3
313.14 K, 1483 kPa	715.9 kg/m3
313.14 K, 1531 kPa	715.8 kg/m3
313.14 K, 1584 kPa	715.9 kg/m3
313.14 K, 1629 kPa	716 kg/m3
313.14 K, 1669 kPa	716 kg/m3
313.14 K, 1710 kPa	716.1 kg/m3
313.14 K, 1760 kPa	716.1 kg/m3
313.14 K, 1825 kPa	716.1 kg/m3
313.14 K, 1889 kPa	716.2 kg/m3
313.14 K, 1951 kPa	716.3 kg/m3
313.14 K, 2000 kPa	716.3 kg/m3
313.14 K, 2044 kPa	716.3 kg/m3
313.14 K, 2096 kPa	716.3 kg/m3
313.14 K, 2138 kPa	716.4 kg/m3
313.14 K, 2175 kPa	716.4 kg/m3
313.14 K, 2217 kPa	716.4 kg/m3
313.14 K, 2260 kPa	716.5 kg/m3
313.14 K, 2304 kPa	716.5 kg/m3
313.14 K, 2364 kPa	716.6 kg/m3
313.14 K, 2419 kPa	716.7 kg/m3
313.14 K, 2474 kPa	716.7 kg/m3
313.14 K, 2523 kPa	716.8 kg/m3
313.14 K, 2591 kPa	716.7 kg/m3
313.14 K, 2653 kPa	716.8 kg/m3
313.14 K, 2699 kPa	716.8 kg/m3
313.14 K, 2782 kPa	717 kg/m3
313.14 K, 2826 kPa	717.1 kg/m3
313.14 K, 2854 kPa	717 kg/m3
313.14 K, 2900 kPa	716.9 kg/m3
313.14 K, 2941 kPa	717.2 kg/m3
313.14 K, 2970 kPa	717 kg/m3
313.14 K, 3000 kPa	717.1 kg/m3
313.14 K, 3048 kPa	717.2 kg/m3
313.14 K, 3086 kPa	717.2 kg/m3
313.14 K, 3137 kPa	717.3 kg/m3
313.14 K, 3192 kPa	717.3 kg/m3
313.14 K, 3234 kPa	717.4 kg/m3
313.14 K, 3277 kPa	717.4 kg/m3
313.14 K, 3305 kPa	717.4 kg/m3
313.14 K, 3306 kPa	717.5 kg/m3
313.14 K, 3307 kPa	717.5 kg/m3
313.14 K, 3322 kPa	717.5 kg/m3
313.14 K, 3343 kPa	717.4 kg/m3
313.14 K, 3360 kPa	717.4 kg/m3
313.14 K, 3378 kPa	717.5 kg/m3
313.14 K, 3404 kPa	717.4 kg/m3
313.14 K, 3422 kPa	717.5 kg/m3
313.14 K, 3447 kPa	717.5 kg/m3
313.14 K, 3468 kPa	717.6 kg/m3
313.14 K, 3499 kPa	717.6 kg/m3
313.14 K, 3518 kPa	717.6 kg/m3
313.14 K, 3549 kPa	717.7 kg/m3
313.14 K, 3576 kPa	717.6 kg/m3
313.14 K, 3598 kPa	717.8 kg/m3
313.14 K, 3629 kPa	717.7 kg/m3
313.14 K, 3654 kPa	717.7 kg/m3
313.14 K, 3674 kPa	717.8 kg/m3
313.14 K, 3693 kPa	717.8 kg/m3
313.14 K, 3713 kPa	717.8 kg/m3
313.14 K, 3739 kPa	717.8 kg/m3
313.14 K, 3768 kPa	717.8 kg/m3
313.14 K, 3821 kPa	717.9 kg/m3
313.14 K, 3843 kPa	718 kg/m3
313.14 K, 3850 kPa	717.8 kg/m3
313.14 K, 3853 kPa	717.9 kg/m3
313.14 K, 3854 kPa	717.9 kg/m3
313.14 K, 3856 kPa	717.8 kg/m3
313.14 K, 3858 kPa	717.9 kg/m3
313.14 K, 3860 kPa	717.9 kg/m3
313.14 K, 3862 kPa	717.9 kg/m3
313.14 K, 3864 kPa	717.9 kg/m3
313.14 K, 3865 kPa	717.9 kg/m3 and 717.8 kg/m3
313.14 K, 3876 kPa	717.9 kg/m3
313.14 K, 3895 kPa	718 kg/m3
313.14 K, 3915 kPa	718 kg/m3
313.14 K, 3933 kPa	718.1 kg/m3
313.14 K, 3949 kPa	717.9 kg/m3
313.14 K, 3970 kPa	718 kg/m3
313.14 K, 3989 kPa	718.1 kg/m3
313.14 K, 4003 kPa	718.1 kg/m3
313.14 K, 4028 kPa	718.1 kg/m3
313.14 K, 4048 kPa	718 kg/m3
313.14 K, 4070 kPa	718.1 kg/m3
313.14 K, 4098 kPa	718.1 kg/m3
313.14 K, 4121 kPa	718.1 kg/m3
313.14 K, 4141 kPa	718.2 kg/m3
313.14 K, 4159 kPa	718.2 kg/m3
313.14 K, 4186 kPa	718.2 kg/m3
313.14 K, 4203 kPa	718.3 kg/m3
313.14 K, 4224 kPa	718.3 kg/m3
313.14 K, 4245 kPa	718.3 kg/m3
313.14 K, 4267 kPa	718.3 kg/m3
313.14 K, 4287 kPa	718.2 kg/m3
313.14 K, 4309 kPa	718.3 kg/m3
313.14 K, 4328 kPa	718.3 kg/m3
313.14 K, 4357 kPa	718.4 kg/m3
313.14 K, 4386 kPa	718.4 kg/m3
313.14 K, 4407 kPa	718.4 kg/m3
313.14 K, 4434 kPa	718.3 kg/m3
313.14 K, 4451 kPa	718.4 kg/m3
313.14 K, 4477 kPa	718.5 kg/m3
313.14 K, 4494 kPa	718.5 kg/m3
313.14 K, 4509 kPa	718.5 kg/m3
